Measured values reported in publication PMC6429297, “Novel 8-Substituted Coumarins That Selectively Inhibit Human Carbonic Anhydrase IX and XII” (International Journal of Molecular Sciences, 2019).
Where two headings read alike, the source gives them in different places.

How the values were obtained:
[1] = molecular target: hCA II (Homo sapiens, UniProt P00918); experiment: stopped-flow CO2 hydrase assay, hCA II
Experimental: (§1) An Applied Photophysics stopped-flow instrument has been used for assaying the CA catalyzed CO2 hydration activity [24]. […] The uncatalyzed rates were determined in the same manner and subtracted from the total observed rates. Stock solutions of inhibitor (0.1 mM) were prepared in distilled-deionized water and dilutions up to 0.005 nM were done thereafter with the assay buffer. Inhibitor and enzyme solutions were preincubated together for 6 hours at room temperature prior to assay, in order to allow for the formation of the E-I complex. The inhibition constants were obtained by nonlinear least-squares methods using PRISM 3 (GraphPad Software, San Diego, CA, USA) and the Cheng–Prusoff equation, as reported by Maresca et al. [14], and represent the mean from at least three different determinations. All CA isoforms were recombinant ones obtained in-house.

[2] = molecular target: hCA XII (Homo sapiens, UniProt O43570); experiment: stopped-flow CO2 hydrase assay, hCA XII
hCA XII, sequence (O43570 25-354): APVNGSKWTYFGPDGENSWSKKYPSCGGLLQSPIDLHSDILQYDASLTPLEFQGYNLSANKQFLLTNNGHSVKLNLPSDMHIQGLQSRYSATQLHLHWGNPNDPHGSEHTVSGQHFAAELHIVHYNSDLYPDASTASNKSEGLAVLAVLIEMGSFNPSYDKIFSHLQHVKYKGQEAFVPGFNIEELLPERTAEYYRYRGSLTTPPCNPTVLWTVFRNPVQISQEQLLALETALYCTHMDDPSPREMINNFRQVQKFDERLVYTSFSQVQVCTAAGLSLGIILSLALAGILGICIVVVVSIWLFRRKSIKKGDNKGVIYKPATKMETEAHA
Experimental: as §1

[3] = molecular target: hCA IX (Homo sapiens, UniProt Q16790); experiment: stopped-flow CO2 hydrase assay, hCA IX; details: recombinant hCA IX, 6 h preincubation, mean from three assays, errors ±5–10%
Experimental: as §1

[4] = molecular target: hCA I (Homo sapiens, UniProt P00915); experiment: stopped-flow CO2 hydrase assay, hCA I
hCA I, sequence (P00915 whole entry): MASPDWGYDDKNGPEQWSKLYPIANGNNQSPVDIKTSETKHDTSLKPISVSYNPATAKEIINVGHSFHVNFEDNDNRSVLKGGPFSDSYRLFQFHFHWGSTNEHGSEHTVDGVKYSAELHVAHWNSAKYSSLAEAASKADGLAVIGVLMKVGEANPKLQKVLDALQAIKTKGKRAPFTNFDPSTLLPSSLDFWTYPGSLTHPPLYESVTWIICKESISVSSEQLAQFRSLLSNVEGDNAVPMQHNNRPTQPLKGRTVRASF
Experimental: as §1

[5] = parameters: method as in PMID 20024932; details: hepatotoxic effect of coumarin; cited from earlier work

Row | Ki [1] | Ki [2] | Ki ([3]; Ki (nM) hCA IX) | Ki [4] | Ki ([3]; read-out: Ki (nM) hCA IX) | SMILES | tolerable daily intake [5]
1 | > 10 µM | 0.0077 µM | 115 nM | > 10 µM |  | Cc1cc(=O)oc2c(CN3CCN(c4ccccc4)CC3)c(O)ccc12 [Compound 7, 7-Hydroxy-4-methyl-8-(4-phenylpiperazin-1-ylmethyl)chromen-2-one] | 
2 | > 10 µM | 0.0089 µM | 190 nM | > 10 µM |  | Cc1cc(=O)oc2c(CN3CCN(c4ccc(Cl)cc4)CC3)c(O)ccc12 [Compound 8, 8-[4-(4-Chlorophenyl)piperazin-1-ylmethyl]-7-hydroxy-4-methylchromen-2-one] | 
3 | > 10 µM | 0.0081 µM | 92.8 nM | > 10 µM |  | Cc1cc(=O)oc2c(CN3CCN(c4ccc(F)cc4)CC3)c(O)ccc12 [Compound 9, 8-[(4-(4-Fluorophenyl)piperazin-1-yl)methyl]-7-hydroxy-4-methylchromen-2-one] | 
4 | > 10 µM | 0.0094 µM | 162 nM | > 10 µM |  | Cc1cc(=O)oc2c(CN3CCN(c4ccc(Br)cc4)CC3)c(O)ccc12 [Compound 10, 7-Hydroxy-8-[4-(bromophenyl)-piperazin-1-ylmethyl]-4-methylchromen-2-one] | 
5 | > 10 µM | 0.0096 µM | 308 nM | > 10 µM |  | Cc1ccc(N2CCN(Cc3c(O)ccc4c(C)cc(=O)oc34)CC2)cc1 [Compound 11, 7-Hydroxy-4-methyl-8-(4-p-tolyl-piperazin-1-ylmethyl)chromen-2-one] | 

The remaining lines, values behind:

Row | SMILES | Ki [1] | Ki [2] | Ki ([3]; Ki (nM) hCA IX) | Ki [4] | Ki ([3]; read-out: Ki (nM) hCA IX) | tolerable daily intake [5]
6 | Cc1cc(=O)oc2cc(O)ccc12 [Compound 1, 7-Hydroxy-4-methylchromen-2-one] | > 10 µM | 0.0058 µM | 32.1 nM | > 10 µM |  | 
7 | Cc1cc(=O)oc2c(CN3CCN(Cc4c(O)ccc5c(C)cc(=O)oc45)CC3)c(O)ccc12 [Compound 2, 1,4-bis[(7-Hydroxy-4-methylcoumarin-8-yl)methyl] piperazine] | > 10 µM | 0.0085 µM | 67.5 nM | > 10 µM |  | 
8 | Cc1cc(=O)oc2c(CN3CCN(C)CC3)c(O)ccc12 [Compound 3, 7-Hydroxy-4-methyl-8-(4-methylpiperazin-1-ylmethyl)chromen-2-one] | > 10 µM | 0.0096 µM | 88.7 nM | > 10 µM |  | 
9 | CCN1CCN(Cc2c(O)ccc3c(C)cc(=O)oc23)CC1 [Compound 4, 8-(4-Ethylpiperazin-1-ylmethyl)-7-hydroxy-4-methylchromen-2-one] | > 10 µM | 0.0064 µM | 32 nM | > 10 µM |  | 
10 | Cc1cc(=O)oc2c(CN3CCN(CCO)CC3)c(O)ccc12 [Compound 5, 7-Hydroxy-8-[4-(2-hydroxyethyl)piperazin-1-ylmethyl]-4-methylchromen-2-one] | > 10 µM | 0.0071 µM | 295 nM | > 10 µM |  | 
11 | C=CCN1CCN(Cc2c(O)ccc3c(C)cc(=O)oc23)CC1 [Compound 6, 8-(4-Allylpiperazin-1-ylmethyl)-7-hydroxy-4-methylchromen-2-one] | > 10 µM | 0.0056 µM |  | > 10 µM | 27.1 nM | 
12 | Cc1cc(=O)oc2c(CN3CCN(c4ccccc4F)CC3)c(O)ccc12 [Compound 12, 8-[4-(2-Fluorophenyl)piperazin-1-ylmethyl]-7-hydroxy-4-methylchromen-2-one] | > 10 µM | 0.0264 µM | 121 nM | > 10 µM |  | 
13 | Cc1cc(=O)oc2c(CN3CCN(Cc4ccc5c(c4)OCO5)CC3)c(O)ccc12 [Compound 13, 8-(4-Benzo[1,3]dioxol-5-ylmethyl-piperazin-1-ylmethyl)-7-hydroxy-4-methyl-chromen-2-one] | > 10 µM | 0.0085 µM | 76.8 nM | > 10 µM |  | 
14 | O=c1ccc2ccccc2o1 [coumarin] |  |  |  |  |  | 0.1 mg/kg body weight
